Experimental data: US20260083126A1, “ANTIMICROBIAL COMPOSITIONS” (AHV International B.V., priority 2022, published 2026)
Converted amounts (≈) assume the structure as drawn. “And” between values parts separate entries of the source, which are not always exact repeats. Equal values may be shown once. Read-outs that look alike come from different tables or passages of the source.

Tests used:
[1] = test system: Staphylococcus epidermidis ATCC 35984; experiment: MIC assay (growth inhibition of planktonic microorganisms); assay type: cell-based; settings: 24 h at 37° C., MHB-II; for MIC50 / MIC90: Staphylococcus epidermidis, ATCC35984; for MIC50 / S. epidermidis MIC50: reduction of final OD600 by 50%; for MIC50: read-out: S. epidermidis MIC50; for MIC90 / S. epidermidis MIC90: reduction of final OD600 by 90%; for MIC90: read-out: S. epidermidis MIC90
Description: (§1) The exact weighed amount was noted and the volume of solvent to reach a 80 mM dilution calculated. Half of the volume was added first, by adding Tween 80 and let stand for 5 minutes. In a second step, the other half of the volume DMSO was added and resuspended to help the dilution process. The closed tube was inverted 5-10 times and then vortexed very thoroughly for at least 30 seconds. If after this procedure crystals were still visible, the tube was placed in a shaker at 37° C. at 150 rpm for at least 30 minutes (it is indicated if the dissolution period was longer than 2 h). […] In case of Bis(4-Chlorophenyl) thiosulfonate, a lower concentrated stock solution of 2 mM needed to be prepared. For that, the required amount of compound was weighed in and 2% v/v Tween80 and 2% v/v DMSO of the end volume of the stock solution was added to the substance. This mix was heated in a water bath set to 40° C. and occasionally shaken. When the whole amount of the substance reached dissolution, the volume was filled up with growth medium until the end volume. This 2 mM stock solution of Bis(4-Chlorophenyl) thiosulfonate was used in the MIC plate and diluted two-fold, resulting in a testing range of Bis(4-Chlorophenyl) thiosulfonate from 1 mM to 0.002 mM.
(§2) The microorganisms as indicated in Table 4 were used to inoculate a tryptic soy agar (TSA) plate and incubated overnight at 37° C. After incubation 3-5 well-isolated colonies with the same morphology were selected from the TSA plate and resuspended in 2 mL 0.9% saline solution with 3-6 glass beads and vortexed. The optical density at 600 nm (OD600) of the bacterial suspension was measured with a spectrophotometer (Evolution™ 201/220 UV-Visible Spectrophotometer, Thermo Fisher Scientific) and diluted to an OD600 of 0.0008, which resembles 10^6 CFU/mL.
(§3) The MIC assay was performed in a flat-bottom 96-microtiter plate. 50 μL of MHB-II was added into columns 2-11, and 100 μL to column 12 for sterility control. 100 μL of the 8 mM test compound solution (method 1) was added to column 1. A two-fold dilution series of the solution in MHB-II was achieved by resuspending 50 μL of the 8 mM solution from column 1 to column 2. This step was repeated until column 10. The respective concentration of Tween 80 and DMSO in column 1 was 2.5%, which is two-fold diluted throughout the plate. 50 μL of the bacterial suspension was added to column 1-11. The microtiter plates were sealed with adhesive polyethylene film for sealing microplates (Diversified Biotech) and incubated for 24 h at 37° C. After incubation the OD was measured at 600 nm with the Varioskan (Thermo Fisher Scientific). The minimal concentration which causes reduction of final OD600 of the bacterial culture by 50% (MIC50) and by 90% (MIC90) was calculated after normalization of the obtained OD values to the growth control in column 11. This assay was repeated three times in three independent experiments.

[2] = test system: Pseudomonas aeruginosa ATCC 27853; experiment: as above; assay type: cell-based; settings: for MIC50 / MIC90: Pseudomonas aeruginosa; for MIC50: ATCC27853, 24 h, read-out: P. aeruginosa MIC50; for MIC50 / P. aeruginosa MIC50: reduction of final OD600 by 50%; for MIC90: ATCC27853
Description: as §1, §2, §3
Hereafter, the stock solutions of the compounds were used in three repetitions in a minimal inhibitory concentration (MIC) assay at a 2-fold dilution range with various bacteria from the gram-positive and gram-negative group and a yeast, Candida albicans. The concentrations that show only less than 10% growth after 24 h were considered the MIC90-values, whereas the concentrations that show 50% growth after 24 h when compared to the bacterial growth control were considered the MIC50-values. Escherichia coli and Staphylococcus aureus were used as representatives for a gram-negative bacteria and gram-positive bacteria, respectively. Furthermore, the yeast C. albicans was also tested.
In an Eppendorf tube between 10-20 mg of the test compound was weighed. Hereafter, the required amount of Tween 80 was added, followed by the amount DMSO. After vigorous shaking, the dissolved and transparent dilutions were diluted 10 times with Mueller Hinton Broth (MHB) for the MIC assay. […]

[3] = test system: Staphylococcus epidermis ATCC 35984 biofilm; experiment: MBEC assay (48 h biofilm, CFU log reduction); assay type: cell-based, Staphylococcus epidermidis; settings: 20 h treatment, 0.125-1 mM tested
Description: (§4) For the MBEC assay (method 1.3) the solutions need to be diluted to a final concentration of 2 mM in 0.9% saline solution and then further diluted to 1 mM, 0.5 mM, 0.25 mM and 0.125 mM in saline. Those dilutions were added as treatment to the 96 well plates with the grown biofilm (see method 3) (0.5 mL needed for one strain). The dilution must stay transparent.
(§5) Frozen aliquots of Staphylococcus epidermis ATCC 35984 and Pseudomonas aeruginosa ATCC 27853 were used to inoculate 20 mL of Tryptic Soy Broth (TSB) in a 100 mL Erlenmeyer flask at 37° C. and 150 rpm and incubated overnight (Infors). The OD600 of the overnight culture was measured with a spectrophotometer (Evolution™ 201/220 UV-Visible Spectrophotometer, Thermo Fisher Scientific) and diluted to an ( ) 600 of 0.2, which resembles 10^8 CFU/mL. The cell suspension of OD600=0.2 was seeded into a U-bottom-shaped 96 well plates by pipetting 100 μL per well in column 1-11, column 12 was filled with 100 μL medium as sterility control. The 96 well plates were sealed with adhesive polyethylene film for sealing microplates and incubated for 48 h at 37° C. at static conditions. After the biofilm growth phase, 100 μL of treatment solutions (method 1) were added to the vials resulting in treatment concentrations of 1 mM, 0.5 mM, 0.25 mM and 0.125 mM and with the respective concentration of Tween 80 and DMSO each at 0.63%, 0.32%, 0.16% and 0.08%. The same concentration was applied to four different wells of the same bacterial strain, resulting in four replicates for each concentration and strain. The treatment was incubated for 20 h at 37° C. at static conditions. After the treatment the supernatant was carefully removed and the well with the biofilm washed carefully for one time with 200 μL 0.9% saline solution. 200 μL saline solution was added and the biofilm was resuspended thoroughly. When fully homogenized then 20 μl, was used for the first dilution in 180 μL 0.9% saline solution, which was prepared in a second plate. This dilution was continued until dilution step 10E-5 and 100 μL of the 10E-4 and 10E-5 dilution plated on a TSA plate. The TSA plates were incubated at 37° C. for 24 h. The colonies on the plates were enumerated, the colony forming units per ml, of the dispensed biofilm and averages thereof and the log reduction in comparison with the untreated sample from the same wells plate calculated. Reduction of colony forming units goes hand in hand with the thickness of the biofilm and thus with the number bacteria that are present in the biofilm. Therefore, a significant reduction of colony forming units in the biofilm was defined at the value of log reduction >1 or more. This assay was repeated two times in two independent experiments)

[4] = test system: Pseudomonas aeruginosa ATCC 27853 biofilm; experiment: MBEC assay (48 h biofilm, CFU log reduction); assay type: cell-based; settings: 20 h treatment, 0.125-1 mM tested
Description: as §4, §5

[5] = reduction of final OD600 by 90%, 24 h at 37° C., MHB-II, read-out: P. aeruginosa MIC90
[6] = reduction of final OD600 by 90%, 24 h at 37° C., MHB-II

SMILES | S. epidermidis MIC50 [1] | S. epidermidis MIC90 [1] | P. aeruginosa MIC90 [2, 6] | MIC50 [1] | MIC90 [1] | MIC50 ([2]; 24 h at 37° C., MHB-II) | MIC90 [2, 5] | S. epidermidis MBEC mM with log reduction ≥1 [3] | P. aeruginosa MBEC mM with log reduction ≥1 [4] | P. aeruginosa MIC50 ([2]; 24 h at 37° C., MHB-II) | MIC90 ([2]; Example 2b, FIG. 1, no MIC90 detected in the tested range, read-out: Average MIC90 P. aeruginosa (Pa))
Clc1ccc(SSc2ccc(Cl)cc2)cc1 [Bis (4-chlorophenyl) disulfide, Bis(4-chlorophenyl) disulfide] | – | – | – | 10 µM (≈ 2.87 µg/mL) | 30 µM (≈ 8.62 µg/mL) | 20 µM (≈ 5.74 µg/mL) | 30 µM (≈ 8.62 µg/mL) | >1 mM | >1 mM | – | –
O=S(=O)(Sc1ccc(Cl)cc1)c1ccc(Cl)cc1 [Bis (4-chlorophenyl) thiosulfonate, Bis(4-chlorophenyl) thiosulfonate] | 30 µM | 60 µM | 2000 µM | – | – | – | – | >1 mM | >1 mM | 250 µM | –
Fc1ccc(SSc2ccc(F)cc2)cc1 [Bis (4-fluorophenyl) disulfide, Bis(4-fluorophenyl) disulfide] | – | – | – | 60 µM (≈ 15.3 µg/mL) | 60 µM (≈ 15.3 µg/mL) | 125 µM (≈ 31.8 µg/mL) | 250 µM (≈ 63.6 µg/mL) | >1 mM | >1 mM | 130 µM | > 4000 µM
CC(C)SS(=O)(=O)C(C)C [Di-isopropyl thiosulfonate] | 2000 µM | 2000 µM | 2000 µM | – | – | – | – | >1 mM | >1 mM | 2000 µM | –
CCCSSCCC [Di-n-propyl disulfide, reference compound] | – | – | – | > 4000 µM | > 4000 µM | > 4000 µM | > 4000 µM | >1 mM | >4 mM | – | –

The next lines start with results.

S. epidermidis MIC50 [1] | S. epidermidis MIC90 [1] | P. aeruginosa MIC90 [2, 6] | SMILES | MIC50 [1] | MIC90 [1] | MIC50 ([2]; 24 h at 37° C., MHB-II) | MIC90 [2, 5] | S. epidermidis MBEC mM with log reduction ≥1 [3] | P. aeruginosa MBEC mM with log reduction ≥1 [4] | P. aeruginosa MIC50 ([2]; 24 h at 37° C., MHB-II) | MIC90 ([2]; Example 2b, FIG. 1, no MIC90 detected in the tested range, read-out: Average MIC90 P. aeruginosa (Pa))
125 µM and 130 µM | 250 µM | 4000 µM | [O-][S+](Sc1ccc(F)cc1)c1ccc(F)cc1 (centres unmarked) [Bis (4-fluorophenyl) thiosulfinate, Bis(4-fluorophenyl) thiosulfinate] | – | – | – | – | >1 mM | >1 mM | 1000 µM | –
250 µM | 2000 µM | 2000 µM | O=S(=O)(Sc1ccc(F)cc1)c1ccc(F)cc1 [Bis (4-fluorophenyl) thiosulfonate, Bis(4-fluorophenyl) thiosulfonate] | – | – | – | – | >1 mM | >1 mM | 2000 µM | –
250 µM | 250 µM | 250 µM | CCCSS(=O)(=O)CCC [Di-n-propyl thiosulfonate, reference compound] | – | – | – | – | 0.25 mM | 1 mM | 250 µM | –
